Test results published in patent EP3572468B1, “CYANINE DYES AND THEIR USAGE FOR IN VIVO STAINING OF MICROORGANISMS” (PHILIPPS-UNIVERSITÄT MARBURG, priority 2018, dated 2019).

Legend:
[1] = tested on: Escherichia coli (E. coli) NEB5α; assay: Bacteria culture and staining: growth and FACS labeling of E. coli; type: cell-based; conditions: for bacterial growth in presence of dye: 2.5 µM dye in LB medium, OD600 over time, liquid and solid medium; for fluorescent labeling of live bacteria (FACS): 2.5 µM dye in culture medium, FACS at mid-exponential growth phase (OD600 = 2.0)
Description: (§1) Escherichia coli (E. coli) NEB5α (New England Biolabs) and antibiotic-resistant and -sensitive Klebsiella pneumoniae (K. pneumoniae) were cultured in Luria-Bertani (LB) solid medium (LB-Agar) overnight at 37°C. The source of the K. pneumoniae strands is of no relevance to the invention. The invention may be applied to all types of microorganisms (bacteria, viri, fungi etc.) or other cells, either contained within a sample or isolated from a sample. For staining, growth curve analysis and replating experiments bacteria were suspended in LB liquid medium at an OD600 nm of 1.0 and 800 µL were transferred into a culture tube containing 7.2 mL of LB liquid medium supplemented with DMSO or candidate dyes (2.5 µM) final concentration). Density of bacterial cultures was measured using an Ultrospec 10 Cell Density Meter with 600 nm LED source (Amersham Biosciences). For bacterial re-plating experiments bacteria were sampled at OD600 nm = 2.0 and 5 µL of indicated dilutions in LB-medium were spotted onto LB-agar plates (Fig. 5) or 100 µL were plated onto LB-agar plates followed by incubation at 37°C until colonies became visible.
Bacteria and macrophages were washed with PBS prior to flow cytometry and analysed using a Guava easyCyte flow cytometer (Millipore). FCS3.0 files were analysed using Flowing Software (http://flowingsoftware.btk.fi/). Cells were first gated in the forward- / side-scatter plot to exclude debries, followed by quadrant gating in plots using the fluorescence channels as shown above. For discrimination of live/dead cell discrimination cells in PBS were supplemented with 0.4 µL/mL propidium-iodide (5 mg/ml solution) followed by 5 min incubation on ice. Propidium iodide signal was recorded in the yellow channel.

bacteria = conditions: in vivo labeling of bacteria for macrophage uptake assays; indicative of toxicity; cited from earlier work
E. coli = assay: Resistance to standard antibiotics, bacterial dilutions spotted onto solid medium; type: cell-based, Escherichia coli; conditions: dilutions spotted onto LB solid medium supplemented with antibiotic, outgrowth 48 h
Description: as §1

[2] = tested on: antibiotic-sensitive K. pneumoniae; assay: as above; type: cell-based, Klebsiella pneumoniae; conditions: the other (antibiotic-sensitive) K. pneumoniae strain; dilutions spotted onto LB solid medium supplemented with antibiotic, outgrowth 48 h
Description: as §1

[3] = tested on: multiresistant K. pneumoniae; assay: as above; type: cell-based, Klebsiella pneumoniae; conditions: dilutions spotted onto LB solid medium supplemented with antibiotic, outgrowth 48 h
Description: as §1

[4] = Molar extinction coefficient determination; type: physicochemical
Description: The concentration determination and measurement of full UV-Vis spectra were performed on a Tecan 20M at room temperature. The measurements were performed in a 1400 µL quarz cuvette with a pathlength of 1 cm in a volume of 1 mL.
For the accurate determination of our compounds 6-TramTO-3 the extinction coefficient was calculated. A specific amount (< 2.00 mg) of the compound was weighted on a Mettler Toledo XP6 and dissolved in a known amount of milli-Q water. Increasing amounts of such stock solution were added into a 1 mL cuvette filled with 1 ml of milli-Q water. The corresponding absorbance of each addition was measured on a Tecan Spark 20M at the maximum at 625 nm and without exceeding 10% of the initial volume. In all the cases the absorbance was between 0.1 and 1 AU. to be in concordance with Lambert-Beer law (equation E2). A = ε l c [formula]
In this equation (E2): A = absorbance of the solution; I = length of the cuvette; c = concentration; ε = molar extinction coefficient.
The lineal regression of the obtained absorbance measurements versus the concentrations of 6-TramTO-3 allowed us to obtain the molar extinction coefficient. These measurements were repeated three times independently i.e. from three different stock solutions. The mean extinction coefficient and the standard deviation of 6-TramTO-3 at a wavelength of 625 nm in milli-Q water was 59403 ±646 M^-1cm^-1.
The mean extinction coefficient and the standard deviation of 6-NH2TO-3 and 6-AzTO-3 were determined following the above described procedure. The extinction coefficient of 6-NH2TO-3 was determined in milli-Q water, whereas the extinction coefficient of 6-AzTO-3 was determined in DMSO due to its low aqueous solubility. […] For the spectrum of 6-AzTO-3 1% of DMSO was added for a better solubility. Fig. 20 and Fig. 21 show the linear regressions from the three independent measurements. Table 4 summarized the molar extinction coefficient obtained. Table 4: Determined mean extinction coefficients and standard deviations of 6-AzTO-3 in DMSO and 6-TramTO-3 and 6-NH2TO-3 in milli-Q water.

[5] = Aqueous solubility (remark); type: physicochemical; conditions: reason why the extinction coefficient was determined in DMSO
dsDNACT = conditions: previously obtained results for DNA intercalators with the same DNA (dsDNACT); cited from earlier work
[6] = Fluorescence quantum yield, dye alone; type: physicochemical; conditions: reference compounds determined against each other; Atto 655 in PBS pH 7.4, Alexa Fluor 647 in 50 mM potassium phosphate pH 7.2 and 150 mM NaCl
Description: Fluorescence intensity values for the quantum yields were determined on an ISS PC1 spectrofluorometer with an ISS 11650 lamp connected to an ISS Simpson model 109 and an ISS 80011 photomulitplier connected to a MGW Lauda K2R D and an Amherst Scientific Corp. 7600F for cooling. A VWR Refrigerated Circ 1160S was connected for the cooling of the cuvette chamber. It was measured in a 1400 µL fluorescence cuvette of HellmaAnalytics (104F-QS) at 25°C using the following settings: increment: 2.0 nm; integration time: 1.0 s; excitation slit width: 0.25 mm; emission slit width: 0.5 mm; excitation wavelength 590 nm. The emission spectra were recorded from 610 to 750 nm. From all spectra the corresponding background signal was substracted. Absorbance values were measured on a Jasco V-650 UV-Vis Spectrophotometer equipped with a Jasco PAC-743 temperature controlled cell holder and a Julabo F250 cooling system. UV-Vis titration measurements were performed in a 1400 µL quarz cuvette with a pathlength of 1 cm at 25°C using the following settings: increment: 1.0 nm; bandwidth: 1.0 nm; scanning speed: 1000 nm/min; scanning mode: continuous. From all values, the corresponding background signal was subtracted. The values for the reference compounds were measured in duplicates, the ones for 6-TramTO-3 with and without dsDNACT in triplicates. The quantum yields of 6-TramTO-3 with (30 eq.) and without dsDNACT were determined in 10 mM Tris pH 7.6 and 50 mM KCI. All measurement were following the procedure of Horiba and using the equation E1: ΦX = ΦST ((GradX)/(GradST)) ((((ηX))^2)/(((ηST))^2)) [formula] where Φ = fluorescence quantum yield, η = refractive index of the used solvent, Grad = gradient from the plot of integrated fluorescence intensity vs. absorbance and the subscripts ST and X denote standard and tested sample. […]
Table 3: Determined slopes and corresponding quantum yields for the two reference compounds Alexa Flour® 647 and Atto 655 and for 6-TramTO-3 with and without dsDNACT.

[7] = Atto 655 in PBS pH 7.4; Alexa Fluor 647 in 50 mM potassium phosphate pH 7.2 and 150 mM NaCl; cited from earlier work

For SyTO-9^™, the “bacterial growth in presence of dye” value [1] is given as “delayed bacterial growth substantially”, the “fluorescent labeling of live bacteria (FACS)” value [1] is given as “efficient green-fluorescent labeling” and the “colony formation of the stained bacteria” value (bacteria) is given as “reduced colony formation”.

With O=C(N[C@H](CO)[C@H](O)c1ccc([N+](=O)[O-])cc1)C(Cl)Cl [chloramphenicol] the sensitivity to antibiotic (E. coli) was “sensitive”, the sensitivity to antibiotic [2] was “sensitive” and the sensitivity to antibiotic [3] was “insensitive”.

With CC[n+]1ccc(/C=C/C=C2\Sc3ccccc3N2CCCCCCN=[N+]=[N-])c2ccccc21.[I-] [6-AzTO-3, 4-((1E,3Z)-3-(3-(6-azidohexyl)benzo[d]thiazol-2(3H)-ylidene)prop-1-en-1-yl)-1-ethylquinolin-1-ium iodide] the mean extinction coefficient ([4]; in DMSO, absorbance maximum at 639 nm) was 110203 ± 1577 M⁻¹ cm⁻¹ and the aqueous solubility [5] was “low”.

For CN(C)c1ccc2nc3ccc(=[N+](C)C)cc-3sc2c1 [methylene blue], the Kd (dsDNACT) is listed as 46 µM.

In the case of CC[N+]1=c2cc3c(cc2CCC1)=Nc1cc2c(cc1O3)N(CCCC(=O)ON1C(=O)CCC1=O)C(C)(C)CC2CS(=O)(=O)[O-] (centres unmarked) [Atto 655, reference compound], the quantum yield [6] is given as 0.31 and the “quantum yield (lit.)” value [7] is given as 0.30.

For “carboxyfluorescein succinimidyl ester [CFSE]”, the “bacterial growth in presence of dye” value [1] was “compatible with bacterial growth” and the “fluorescent labeling of live bacteria (FACS)” value [1] was “hardly labeled bacteria”.

With CC[n+]1ccc(/C=C/C=C2\Sc3ccccc3N2CCCCCCN)c2ccccc21.O=C([O-])C(F)(F)F [6-NH2TO-3, mono(4-((1E,3Z)-3-(3-(6-ammoniohexyl)benzo[d]thiazol-2(3H)-ylidene)prop-1-enyl)-1-ethylquinolinium) mono(2,2,2-trifluoroacetate)] the mean extinction coefficient ([4]; in milli-Q water, absorbance maximum at 625 nm) was 90043 ± 418 M⁻¹ cm⁻¹.

With CC1(C)S[C@@H]2[C@H](NC(=O)[C@H](N)c3ccccc3)C(=O)N2[C@H]1C(=O)O [ampicillin] the sensitivity to antibiotic (E. coli) was “sensitive”, the sensitivity to antibiotic [2] was “sensitive” and the sensitivity to antibiotic [3] was “insensitive”.

In the case of CN(C)c1ccc2cc3ccc(N(C)C)cc3nc2c1 [acridine orange], the Kd (dsDNACT) is given as 36 µM.

For Alexa Fluor^® 647 [reference compound], the quantum yield [6] is listed as 0.32 and the “quantum yield (lit.)” value [7] is listed as 0.33.
